Source: ChEMBL document CHEMBL1201862, “PubChem BioAssay data set” (2004)
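The compound was tested at five concentrations on cells cultured in 96-well plates, with a 48-hour exposure period. GI50 marks 50% less growth.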 Activity calls are given as the source filed them. Cut-off read from the data, not from the text of the source: active = GI50 up to about 1.1 µM and inactive = higher.

Columns and labels:
Assay in all cases: inhibition of tumour cell growth, NCI panel, 48 h
[1] = test system: HOP-18
[2] = test system: DMS-114
[3] = test system: BT-549
[4] = test system: KM-20L2
[5] = test system: M19-MEL
[6] = test system: LXFL 529
[7] = test system: RXF 631
[8] = test system: XF498
[9] = test system: SNB-78

## Cc1cc(-c2c(F)cc3c4nn([C@H]5CC[C@@H](N(C)C)CC5)c(=O)c-4cn(C4CC4)c3c2F)cc(C)n1
[1]
  GI50: 0.197 µM (active)
[2]
  GI50: 0.024 µM (active)
[3]
  GI50: 0.479 µM (active)
[4]
  GI50: 0.14 µM (active)
[5]
  GI50: 0.0891 µM (active)
[6]
  GI50: 0.0528 µM (active)
[7]
  GI50: 0.0355 µM (active)
[8]
  GI50: 0.318 µM (active)
[9]
  GI50: 0.28 µM (active)

## O=c1[nH]cc(OCC(F)(F)F)c(=O)[nH]1
[1]
  GI50: > 100 µM (inactive)
[2]
  GI50: > 100 µM (inactive)
[4]
  GI50: > 100 µM (inactive)
[5]
  GI50: > 100 µM (inactive)
[6]
  GI50: > 100 µM (inactive)
[7]
  GI50: > 100 µM (inactive)
[8]
  GI50: > 100 µM (inactive)
[9]
  GI50: > 100 µM (inactive)

## CCOC(=O)C1S/C(=N/c2ccc(Cl)cc2C)N=C1C (stereo not drawn)
[1]
  GI50: 45.8 µM (inactive)
[2]
  GI50: 12.9 µM (inactive)
[4]
  GI50: 17.4 µM (inactive)
[5]
  GI50: 20 µM (inactive)
[6]
  GI50: 18 µM (inactive)
[7]
  GI50: 21.1 µM (inactive)
[8]
  GI50: 20.9 µM (inactive)
[9]
  GI50: 20.4 µM (inactive)

## C[C@@H]1[C@H](c2ccccc2)O[B-]2(c3ccc(Br)cc3)OC(=O)C[N+]12C (stereo partly drawn)
[1]
  GI50: > 100 µM (inactive)
[2]
  GI50: > 100 µM (inactive)
[4]
  GI50: > 100 µM (inactive)
[5]
  GI50: > 100 µM (inactive)
[6]
  GI50: 86.5 µM (inactive)
[7]
  GI50: > 100 µM (inactive)
[8]
  GI50: 97.1 µM (inactive)
[9]
  GI50: 35.4 µM (inactive)

## CSC(=N\c1ccccc1)/N=C(\SCc1ccccc1)N(C)C
[1]
  GI50: 0.774 µM (active)
[2]
  GI50: 1.09 µM (active)
[3]
  GI50: 1.42 µM (inactive)
[5]
  GI50: 1.66 µM (inactive)
[6]
  GI50: 0.454 µM (active)
[7]
  GI50: 1.38 µM (inactive)
[8]
  GI50: 1.33 µM (inactive)
[9]
  GI50: 1.63 µM (inactive)

## COc1ccc(C2Oc3c(cc(O)c(OC)c3C)[C@@H]2C)cc1OC (stereo partly drawn)
[1]
  GI50: > 100 µM (inactive)
[2]
  GI50: 33 µM (inactive)
[4]
  GI50: > 100 µM (inactive)
[5]
  GI50: 86.1 µM (inactive)
[6]
  GI50: 65.9 µM (inactive)
[7]
  GI50: > 100 µM (inactive)
[8]
  GI50: 51.8 µM (inactive)
[9]
  GI50: 69.8 µM (inactive)

## C=CCCCCCCCCC(=O)NS(=O)(=O)c1ccccc1
[1]
  GI50: 40.9 µM (inactive)
[2]
  GI50: > 100 µM (inactive)
[4]
  GI50: > 100 µM (inactive)
[5]
  GI50: > 100 µM (inactive)
[6]
  GI50: > 100 µM (inactive)
[7]
  GI50: > 100 µM (inactive)
[8]
  GI50: > 100 µM (inactive)
[9]
  GI50: > 100 µM (inactive)

## COC1N(C2CC(O)C(CO)O2)C(=O)NC(=O)C1(F)Br (stereo not drawn)
[1]
  GI50: > 50 µM (inactive)
[2]
  GI50: 43.9 µM (inactive)
[3]
  GI50: 25 µM (inactive)
[4]
  GI50: 16.6 µM (inactive)
[6]
  GI50: 24.4 µM (inactive)
[7]
  GI50: 6.84 µM (inactive)
[8]
  GI50: 17.3 µM (inactive)
[9]
  GI50: > 50 µM (inactive)

## COc1ccc(C2C(C)C(=O)C(C)C(c3ccc(OC)cc3)N2N=O)cc1 (stereo not drawn)
[1]
  GI50: > 100 µM (inactive)
[2]
  GI50: > 750 µM (inactive)
[4]
  GI50: > 925 µM (inactive)
[5]
  GI50: > 750 µM (inactive)
[6]
  GI50: > 750 µM (inactive)
[7]
  GI50: > 95.3 µM (inactive)
[8]
  GI50: 166 µM (inactive)
[9]
  GI50: 121 µM (inactive)
